These results are taken from patent US9688695B2, “Imidazothiadiazole and imidazopyrazine derivatives as protease activated receptor 4 (PAR4) inhibitors for treating platelet aggregation” (BRISTOL-MYERS SQUIBB COMPANY, priority 2012, dated 2017).

Each structure is given as a SMILES string.

For this assay, the target named is PAR4 (Homo sapiens (Human), UniProt Q96RI0). Nature of the assay: FLIPR assay in PAR4-expressing HEK293 cells (PAR4 antagonist activity, calcium mobilization). In kind it is cell-based. To be noted: H-Ala-Phe(4-F)-Pro-Gly-Trp-Leu-Val-Lys-Asn-Gly-NH2-induced calcium mobilization. In outline: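 HEK293 EBNA cells stably expressing human PAR4 (also endogenous PAR1) preincubated 30 min at room temperature with compound in HBSS/10 mM HEPES, 0.67% DMSO final. PAR4 agonist peptide then added and intracellular calcium mobilization monitored by fluorescence.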
PAR4, sequence (Q96RI0 18-385): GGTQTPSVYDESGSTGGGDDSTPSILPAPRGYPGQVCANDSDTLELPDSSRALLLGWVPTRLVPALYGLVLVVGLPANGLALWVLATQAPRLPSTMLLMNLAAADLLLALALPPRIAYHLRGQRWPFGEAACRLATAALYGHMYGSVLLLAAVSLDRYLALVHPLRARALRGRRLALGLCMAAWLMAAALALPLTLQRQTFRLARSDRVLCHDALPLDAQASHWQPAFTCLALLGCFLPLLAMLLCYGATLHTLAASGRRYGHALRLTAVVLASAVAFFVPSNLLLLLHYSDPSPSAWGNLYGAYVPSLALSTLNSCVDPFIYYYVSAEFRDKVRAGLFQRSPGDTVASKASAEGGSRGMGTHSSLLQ
For orientation: EC50 means the concentration needed to bring the measured effect to its halfway point. As for `COc1cc(OCc2csc(N3CCOCC3)n2)c2cc(-c3cn4nc(C)ccc4n3)oc2c1` [Example 215], the EC50 worked out at 3.3 nM.
To `COc1cc(OCc2csc(N3C[C@@H](C)O[C@@H](C)C3)n2)c2cc(-c3cn4nc(C)ccc4n3)oc2c1` [Example 216] belongs 0.99 nM; to `COc1cc(OCc2csc(N3CCSCC3)n2)c2cc(-c3cn4nc(C)ccc4n3)oc2c1` [Example 217], 0.61 nM.
To `COc1cc(OCc2csc(N3CCCOCC3)n2)c2cc(-c3cn4nc(C)ccc4n3)oc2c1` [Example 218] belongs 0.56 nM.
With `COc1cc(OCc2nc(N3CCOCC3)sc2C(F)(F)F)c2cc(-c3cn4nc(C)ccc4n3)oc2c1` [Example 220] the figure was 0.72 nM; with `COc1cc(OCc2csc(-c3cccc(OC(C)=O)c3)n2)c2cc(-c3cn4nc(C)ccc4n3)oc2c1` [Example 221], 1.2 nM; with `COc1cc(OCc2csc(-c3cccc(O)c3)n2)c2cc(-c3cn4nc(C)ccc4n3)oc2c1` [Example 222], 0.65 nM.
`COc1cc(OCc2csc(-c3ccc(C(=O)N(C)C)cc3)n2)c2cc(-c3cn4nc(C)ccc4n3)oc2c1` [Example 223]: the EC50 was 0.62 nM.
To `COc1cc(OCc2csc(-c3ccc(C#N)cc3)n2)c2cc(-c3cn4nc(C)ccc4n3)oc2c1` [Example 224] belongs 0.75 nM.
On to `COc1cc(OCc2nc(-c3ccc(C(=O)N(C)C)cc3)sc2C)c2cc(-c3cn4nc(C)ccc4n3)oc2c1` [Example 225], for which the EC50 came to 0.54 nM.
With `COc1cc(OCc2csc(-c3ccc(COC(C)=O)cc3)n2)c2cc(-c3cn4nc(C)ccc4n3)oc2c1` [Example 226] the figure was 0.81 nM; with `COc1cc(OCc2nc(-c3ccnc(F)c3)sc2C)c2cc(-c3cn4nc(C)ccc4n3)oc2c1` [Example 227], 0.31 nM; with `COc1cc(OCc2csc(-c3ccc(F)nc3)n2)c2cc(-c3cn4nc(C)ccc4n3)oc2c1` [Example 228], 0.18 nM.
With `COc1cc(OCc2nc(-c3cccc(COC(C)=O)c3)sc2C)c2cc(-c3cn4nc(C)ccc4n3)oc2c1` [Example 229] the figure was 0.76 nM; with `COc1cc(OCc2nc(-c3cccc(CO)c3)sc2C)c2cc(-c3cn4nc(C)ccc4n3)oc2c1` [Example 230], 1.3 nM; with `COc1cc(OCc2csc(-c3ccc(C)nc3)n2)c2cc(-c3cn4nc(C)ccc4n3)oc2c1` [Example 231], 1.8 nM.
To `COc1cc(OCc2csc(-c3ccncc3)n2)c2cc(-c3cn4nc(C)ccc4n3)oc2c1` [Example 232] belongs 0.99 nM; to `COc1cc(OCc2csc(-c3ccc(Cl)nc3)n2)c2cc(-c3cn4nc(C)ccc4n3)oc2c1` [Example 233], 2.8 nM; to `COc1cc(OCc2csc(-c3ccc(S(C)(=O)=O)cc3)n2)c2cc(-c3cn4nc(C)ccc4n3)oc2c1` [Example 234], 0.66 nM.
For the molecule `COc1cc(OCc2csc(N3CCC(F)(F)CC3)n2)c2cc(-c3cn4nc(C)ccc4n3)oc2c1` [Example 235], the EC50 was 0.44 nM.
To `COc1cc(OCc2csc(N3CCN(S(C)(=O)=O)CC3)n2)c2cc(-c3cn4nc(C)ccc4n3)oc2c1` [Example 236] belongs 1.9 nM.
On to `COc1cc(OCc2csc(N3CCN(S(=O)(=O)c4ccc(C#N)cc4)CC3)n2)c2cc(-c3cn4nc(C)ccc4n3)oc2c1` [Example 237], for which the concentration giving a half-maximal response (EC50) came out at 3.5 nM.
With `CCc1sc(N2CCOCC2)nc1COc1cc(OC)cc2oc(-c3cn4nc(C)ccc4n3)cc12` [Example 238] the figure was 0.73 nM.
With `COc1cc(OCc2csc(C3CCC(F)(F)CC3)n2)c2cc(-c3cn4nc(C)ccc4n3)oc2c1` [Example 239] the figure was 0.58 nM; with `COc1cc(OCc2csc(C3(c4cccc(Cl)c4)CCOCC3)n2)c2cc(-c3cn4nc(C)ccc4n3)oc2c1` [Example 240], 6.9 nM.
Take `COc1cc(OCc2csc(C3(c4ccc(Cl)cc4)CCOC3)n2)c2cc(-c3cn4nc(C)ccc4n3)oc2c1` (stereo not shown) [Example 241]: the EC50 came to 1.2 nM.
With `COc1cc(OCc2csc(C3(c4ccc(C)cc4)CCOCC3)n2)c2cc(-c3cn4nc(C)ccc4n3)oc2c1` [Example 242] the figure was 0.59 nM; with `COCCN(CCOC)c1nc(COc2cc(OC)cc3oc(-c4cn5nc(C)ccc5n4)cc23)cs1` [Example 246], 1.4 nM.
With `COc1cc(OCc2csc(Nc3cccc(N(C)C)c3)n2)c2cc(-c3cn4nc(C)ccc4n3)oc2c1` [Example 248] the figure was 3.1 nM; with `COc1cc(OCc2csc(N(C)CCC#N)n2)c2cc(-c3cn4nc(C)ccc4n3)oc2c1` [Example 250], 3.6 nM.
With `COCCNc1nc(COc2cc(OC)cc3oc(-c4cn5nc(C)ccc5n4)cc23)cs1` [Example 251] the figure was 11 nM.
For `COc1cc(OCc2csc(N3CCC(N(C)C)CC3)n2)c2cc(-c3cn4nc(C)ccc4n3)oc2c1` [Example 252], the EC50 was determined as 871 nM.
To `COc1cc(OCc2csc(N3CC[C@@H](O)C3)n2)c2cc(-c3cn4nc(C)ccc4n3)oc2c1` [Example 253] belongs 9.7 nM; to `COc1cc(OCc2csc(NC(C)C)n2)c2cc(-c3cn4nc(C)ccc4n3)oc2c1` [Example 255], 1.7 nM; to `COc1cc(OCc2csc(N3CCSCC3)n2)c2cc(-c3cn4nc(C)ccc4n3)oc2c1` [Example 258], 0.81 nM.
With `COc1cc(OCc2csc(N3CCC(C)CC3)n2)c2cc(-c3cn4nc(C)ccc4n3)oc2c1` [Example 259] the figure was 0.58 nM; with `COc1cc(OCc2csc(Nc3cccc(C#N)c3)n2)c2cc(-c3cn4nc(C)ccc4n3)oc2c1` [Example 260], 7 nM.
To `COc1cc(OCc2csc(N3CCN(c4ccccc4)CC3)n2)c2cc(-c3cn4nc(C)ccc4n3)oc2c1` [Example 262] belongs 0.75 nM; to `COc1cc(OCc2csc(N3CCN(c4ccccn4)CC3)n2)c2cc(-c3cn4nc(C)ccc4n3)oc2c1` [Example 263], 1.2 nM; to `COc1cc(OCc2csc(Nc3cccc(C)c3)n2)c2cc(-c3cn4nc(C)ccc4n3)oc2c1` [Example 267], 4.2 nM.
For `COc1cc(OCc2csc(NCc3cccc(N(C)C)c3)n2)c2cc(-c3cn4nc(C)ccc4n3)oc2c1` [Example 269], the EC50 was 2.5 nM.
To `COc1cc(OCc2csc(N3CCN(Cc4cccnc4)CC3)n2)c2cc(-c3cn4nc(C)ccc4n3)oc2c1` [Example 270] belongs 5.8 nM; to `CCC1CCN(c2nc(COc3cc(OC)cc4oc(-c5cn6nc(C)ccc6n5)cc34)cs2)CC1` [Example 271], 1.3 nM; to `COc1cc(OCc2csc(N3CCC(F)CC3)n2)c2cc(-c3cn4nc(C)ccc4n3)oc2c1` [Example 272], 2 nM.
With `COc1cc(OCc2csc(N3CCOC(C)C3)n2)c2cc(-c3cn4nc(C)ccc4n3)oc2c1` (stereo not shown) [Example 277] the figure was 1.1 nM; with `COc1cc(OCc2csc(N3CCC4(CC3)CC4)n2)c2cc(-c3cn4nc(C)ccc4n3)oc2c1` [Example 278], 1.4 nM; with `COc1cc(OCc2csc(N(C)C(C)C)n2)c2cc(-c3cn4nc(C)ccc4n3)oc2c1` [Example 280], 6.2 nM.
`COc1cccc(Nc2nc(COc3cc(OC)cc4oc(-c5cn6nc(C)ccc6n5)cc34)cs2)c1` [Example 283]: the EC50 came out at 2.9 nM.
For `COc1cc(OCc2csc(N3CCN(c4cccc(Cl)n4)CC3)n2)c2cc(-c3cn4nc(C)ccc4n3)oc2c1` [Example 284], the EC50 amounted to 1.1 nM.
To `COc1cc(OCc2csc(N3CCN(C4CCOCC4)CC3)n2)c2cc(-c3cn4nc(C)ccc4n3)oc2c1` [Example 286] belongs 110 nM; to `CCN(C(=O)c1ccc(-c2nc(COc3cc(OC)cc4oc(-c5cn6nc(OC)sc6n5)cc34)cs2)cc1)C(C)C` [Example 287], 0.48 nM.
To `COc1cc(OCc2csc(-c3ccc(C(=O)N4CCC4)cc3)n2)c2cc(-c3cn4nc(OC)sc4n3)oc2c1` [Example 289] belongs 1.2 nM.
To `COc1cc(OCc2csc(-c3ccc(C(=O)N4CC(O)C4)cc3)n2)c2cc(-c3cn4nc(OC)sc4n3)oc2c1` [Example 290] belongs 0.6 nM; to `CCN(CCC#N)C(=O)c1ccc(-c2nc(COc3cc(OC)cc4oc(-c5cn6nc(OC)sc6n5)cc34)cs2)cc1` [Example 292], 0.27 nM.
Regarding `COc1cc(OCc2csc(-c3ccc(C(=O)NCCO)cc3)n2)c2cc(-c3cn4nc(OC)sc4n3)oc2c1` [Example 293], the EC50 was determined as 0.72 nM.
With `COc1cc(OCc2csc(-c3ccc(C(=O)N4CC(OC)C4)cc3)n2)c2cc(-c3cn4nc(OC)sc4n3)oc2c1` [Example 294], the EC50 stood at 0.4 nM.
Turning to `COc1cc(OCc2csc(-c3ccc(C(=O)NC4COC4)cc3)n2)c2cc(-c3cn4nc(OC)sc4n3)oc2c1` [Example 295], the EC50 stood at 92 nM.
To `C=CCN(C)C(=O)c1ccc(-c2nc(COc3cc(OC)cc4oc(-c5cn6nc(OC)sc6n5)cc34)cs2)cc1` [Example 296] belongs 2.2 nM; to `COc1cc(OCc2csc(-c3ccc(C(=O)N(C)C(C)(C)C)cc3)n2)c2cc(-c3cn4nc(OC)sc4n3)oc2c1` [Example 297], 0.52 nM; to `COc1cc(OCc2csc(-c3ccc(C(=O)N(C)C4COC4)cc3)n2)c2cc(-c3cn4nc(OC)sc4n3)oc2c1` [Example 298], 0.99 nM.
With `CCN(C(=O)c1ccc(-c2nc(COc3cc(OC)cc4oc(-c5cn6nc(OC)sc6n5)cc34)cs2)cc1)C1CC1` [Example 299] the figure was 0.55 nM; with `COc1cc(OCc2csc(-c3ccc(C(=O)N(C)CCO)cc3)n2)c2cc(-c3cn4nc(OC)sc4n3)oc2c1` [Example 300], 0.42 nM; with `COc1cc(OCc2csc(-c3ccc(C(=O)N4CCC(C)CC4)cc3)n2)c2cc(-c3cn4nc(OC)sc4n3)oc2c1` [Example 302], 0.44 nM.
To `COc1cc(OCc2csc(-c3ccc(C(=O)N4CCCCCC4)cc3)n2)c2cc(-c3cn4nc(OC)sc4n3)oc2c1` [Example 303] belongs 0.85 nM.
